Our source for the IC50 values is US10457655B2, “Compounds and compositions for inhibition of FASN” (FORMA Therapeutics, Inc., priority 2013, dated 2019).

The target of one test is FASN enzyme (Homo sapiens, UniProt P49327). Put plainly: Enzymatic Assay for FASN Inhibitors. The test is classed as biochemical.
FASN enzyme, sequence (P49327 whole entry): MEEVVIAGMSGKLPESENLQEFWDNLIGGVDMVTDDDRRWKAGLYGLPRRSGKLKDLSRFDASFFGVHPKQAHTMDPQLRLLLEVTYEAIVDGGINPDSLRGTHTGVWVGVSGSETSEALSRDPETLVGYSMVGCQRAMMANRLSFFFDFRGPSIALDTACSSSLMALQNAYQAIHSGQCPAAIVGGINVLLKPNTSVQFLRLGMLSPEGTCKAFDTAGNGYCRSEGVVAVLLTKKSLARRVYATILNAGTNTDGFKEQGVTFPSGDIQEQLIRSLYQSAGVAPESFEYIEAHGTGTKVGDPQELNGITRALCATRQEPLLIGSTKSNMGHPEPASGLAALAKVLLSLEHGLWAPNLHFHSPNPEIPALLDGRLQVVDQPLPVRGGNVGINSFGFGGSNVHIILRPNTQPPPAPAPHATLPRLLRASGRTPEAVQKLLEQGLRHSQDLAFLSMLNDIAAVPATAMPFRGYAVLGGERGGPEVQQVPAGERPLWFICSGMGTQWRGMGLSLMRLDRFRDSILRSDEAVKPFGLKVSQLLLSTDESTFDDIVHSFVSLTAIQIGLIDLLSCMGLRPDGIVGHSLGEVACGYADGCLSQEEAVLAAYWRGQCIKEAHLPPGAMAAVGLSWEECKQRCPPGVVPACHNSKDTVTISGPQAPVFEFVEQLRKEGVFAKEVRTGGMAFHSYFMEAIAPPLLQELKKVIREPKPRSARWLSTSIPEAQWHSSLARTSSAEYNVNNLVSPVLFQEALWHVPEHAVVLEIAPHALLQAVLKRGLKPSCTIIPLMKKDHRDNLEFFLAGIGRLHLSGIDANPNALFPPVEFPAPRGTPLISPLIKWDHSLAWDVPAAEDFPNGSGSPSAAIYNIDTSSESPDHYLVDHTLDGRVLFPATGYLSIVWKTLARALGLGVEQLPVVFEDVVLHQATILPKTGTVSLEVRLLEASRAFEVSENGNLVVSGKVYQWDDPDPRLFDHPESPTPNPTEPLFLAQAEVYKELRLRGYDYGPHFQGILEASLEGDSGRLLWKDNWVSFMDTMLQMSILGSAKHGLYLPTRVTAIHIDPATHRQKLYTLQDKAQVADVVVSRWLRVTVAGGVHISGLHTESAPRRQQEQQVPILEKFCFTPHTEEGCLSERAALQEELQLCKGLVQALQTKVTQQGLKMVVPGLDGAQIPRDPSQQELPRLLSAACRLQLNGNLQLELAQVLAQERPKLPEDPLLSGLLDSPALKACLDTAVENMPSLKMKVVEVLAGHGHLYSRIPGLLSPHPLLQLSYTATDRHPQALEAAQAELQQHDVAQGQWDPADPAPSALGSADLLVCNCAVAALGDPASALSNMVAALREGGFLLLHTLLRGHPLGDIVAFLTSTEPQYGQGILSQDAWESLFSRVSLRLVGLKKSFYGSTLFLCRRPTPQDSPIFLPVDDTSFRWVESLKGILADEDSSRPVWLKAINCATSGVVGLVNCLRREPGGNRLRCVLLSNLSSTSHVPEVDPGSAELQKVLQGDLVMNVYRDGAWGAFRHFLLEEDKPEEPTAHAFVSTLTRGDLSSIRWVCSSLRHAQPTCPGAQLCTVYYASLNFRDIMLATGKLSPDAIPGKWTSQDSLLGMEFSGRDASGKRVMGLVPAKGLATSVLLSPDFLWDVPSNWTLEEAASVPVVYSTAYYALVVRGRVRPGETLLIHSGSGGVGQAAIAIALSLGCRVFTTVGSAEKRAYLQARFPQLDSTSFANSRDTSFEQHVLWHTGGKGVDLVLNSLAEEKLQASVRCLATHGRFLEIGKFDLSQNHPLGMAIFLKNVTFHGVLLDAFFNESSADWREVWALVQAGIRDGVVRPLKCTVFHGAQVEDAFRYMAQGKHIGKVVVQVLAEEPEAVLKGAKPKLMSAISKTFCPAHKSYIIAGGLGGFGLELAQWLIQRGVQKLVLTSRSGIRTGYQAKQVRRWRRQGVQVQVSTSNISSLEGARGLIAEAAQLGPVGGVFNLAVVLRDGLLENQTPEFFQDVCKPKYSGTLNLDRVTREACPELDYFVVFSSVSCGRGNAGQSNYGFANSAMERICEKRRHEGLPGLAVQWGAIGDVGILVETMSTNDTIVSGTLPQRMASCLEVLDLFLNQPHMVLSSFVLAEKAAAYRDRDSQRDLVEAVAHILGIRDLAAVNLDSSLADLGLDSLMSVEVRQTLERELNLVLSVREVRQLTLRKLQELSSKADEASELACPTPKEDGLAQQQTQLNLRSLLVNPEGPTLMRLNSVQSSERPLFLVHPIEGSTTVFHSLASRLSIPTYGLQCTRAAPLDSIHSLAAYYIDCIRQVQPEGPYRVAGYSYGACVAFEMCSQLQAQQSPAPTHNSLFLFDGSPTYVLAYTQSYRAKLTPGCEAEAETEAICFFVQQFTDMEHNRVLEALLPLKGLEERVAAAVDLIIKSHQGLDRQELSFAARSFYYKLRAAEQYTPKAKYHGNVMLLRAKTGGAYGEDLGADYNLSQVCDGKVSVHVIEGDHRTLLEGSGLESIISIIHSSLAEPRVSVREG
Conditions: not given
The method, then: Assays were performed in a 384-well black plate to measure the inhibition of FASN activities by individual compounds herein disclosed. An aliquot of 250 nL of compound was incubated with 10 μL of 40 nM FASN enzyme in assay buffer (50 mM HEPES pH=7.3, 0.5 mM EDTA, 1 mM Ascorbate, 100 mM NaCl and 0.04% TritonX-100) in each well at 25° C. for 60 minutes. After the plate was centrifuged briefly, 10 μL of substrate mix (20 μM Acetyl-CoA, 60 μM Malonyl-CoA, and 100 μM NADPH in assay buffer) was added to each well. The reaction was maintained at 25° C. for 90 minutes. The reaction was then quenched by adding 10 μL of 90 μM 7-Diethylamino-3-(4′-Maleimidylpheynyl)-4-Methylcoumarin in 50/50 Ethanol/H2O solution. The assay plate was incubated at 25° C. for 15 minutes, and read on a plate reader with excitation and emission wavelength at 360 nm and 530 nm, respectively. The IC50 of a given compound was calculated by fitting the dose response curve with a four parameter logistic equation.
As for `O=C(c1ccc(-c2cc3ccccc3[nH]2)cc1)N1CCN(C(=O)C2(O)CC2)CC1` [1-[(4-{[4-(1H-indol-2-yl)phenyl]carbonyl}piperazin-1-yl)carbonyl]cyclopropan-1-ol], the half-maximal inhibitory concentration (IC50) (in general, the concentration that inhibits the measured activity by half) was under 500 nM.
Still for that read-out and setting: with `Cn1nc(O)c2ccc(-c3ccc(C(=O)N4CCN(C(=O)C5(O)CC5)CC4)cc3)cc21` [6-{4-[4-(1-hydroxycyclopropanecarbonyl)piperazine-1-carbonyl]phenyl}-1-methyl-1H-indazol-3-ol] the figure was under 500 nM; with `O=C(c1ccc(-c2ccc(-c3cn[nH]c3)cc2)cc1)N1CCN(C(=O)C2(O)CC2)CC1`, under 500 nM.
Still for that read-out and setting: with `O=C(c1ccc(N2Cc3ccc(F)cc3C2)cc1)N1CCN(C(=O)C2(O)CC2)CC1` [1-{4-[4-(5-fluoro-2,3-dihydro-1H-isoindol-2-yl)benzoyl]piperazine-1-carbonyl}cyclopropan-1-ol] the figure was under 500 nM; with `Nc1nc(-c2cccc(-c3ccc(C(=O)N4CCN(C(=O)C5(O)CC5)CC4)cc3)c2)cs1` [1-(4-{4-[3-(2-amino-1,3-thiazol-4-yl)phenyl]benzoyl}piperazine-1-carbonyl)cyclopropan-1-ol], under 500 nM.
As to `C[C@H]1CN(C(=O)c2ccc(-c3ccc4cn(C)nc4c3)cc2)CCN1C(=O)C1(O)CC1` [1-[(2S)-2-methyl-4-[4-(2-methyl-2H-indazol-6-yl)benzoyl]piperazine-1-carbonyl]cyclopropan-1-ol], the half-maximal inhibitory concentration (IC50) was under 500 nM.
The same measure, in the same setting: with `O=C(c1ccc(-c2cccc(NS(=O)(=O)CC3CCC3)c2)cc1)N1CCN(C(=O)C2(O)CC2)CC1` [1-cyclobutyl-N-(3-{4-[4-(1-hydroxycyclopropanecarbonyl)piperazine-1-carbonyl]phenyl}phenyl)methanesulfonamide] the figure was under 500 nM.
`Nc1noc2ccc(-c3ccc(C(=O)N4CCN(C(=O)C5(O)CC5)CC4)cc3)cc12` [1-{4-[4-(3-amino-1,2-benzoxazol-5-yl)benzoyl]piperazine-1-carbonyl}cyclopropan-1-ol] had an IC50 of under 500 nM.
`O=C(c1ccc(-c2cccc(NS(=O)(=O)C3CCC3)c2)cc1)N1CCN(C(=O)C2(O)CC2)CC1` [N-(3-{4-[4-(1-hydroxycyclopropanecarbonyl)piperazine-1-carbonyl]phenyl}phenyl)cyclobutanesulfonamide] yielded an IC50 of under 500 nM.
The same measure, in the same setting: as for `Cc1nn(C)c2ccc(-c3ccc(C(=O)N4CCN(C(=O)C5(O)CC5)CC4)cc3Cl)cc12` [1-{4-[3-chloro-4-(1,3-dimethyl-1H-indazol-5-yl)benzoyl]piperazine-1-carbonyl}cyclopropan-1-ol], the figure is under 500 nM; as for `O=C(c1ccc(-c2ncc3cc(F)ccc3n2)cc1)N1CCN(C(=O)C2(O)CC2)CC1` [1-{4-[4-(6-fluoroquinazolin-2-yl)benzoyl]piperazine-1-carbonyl}cyclopropan-1-ol], under 500 nM.
On the same count and under the same terms, as for `Cn1ncc2cc(-c3ccc(C(=O)N4CCN(C(=O)C5(O)CC5)CC4)cc3)ccc21` [1-[(4-{[4-(1-methyl-1H-indazol-5-yl)phenyl]carbonyl}piperazin-1-yl)carbonyl]cyclopropan-1-ol], the figure is under 500 nM; as for `Nc1cc(-c2cccc(-c3ccc(C(=O)N4CCN(C(=O)C5(N)CC5)CC4)c(F)c3)c2)no1` [3-(3-{4-[4-(1-aminocyclopropanecarbonyl)piperazine-1-carbonyl]-3-fluorophenyl}phenyl)-1,2-oxazol-5-amine], under 500 nM.
On the same count and under the same terms, with `Cn1ncc2ccc(-c3ccc(C(=O)N4CCN(C(=O)C5(N)CC5)CC4)c(F)c3)cc21` [1-{4-[2-fluoro-4-(1-methyl-1H-indazol-6-yl)benzoyl]piperazine-1-carbonyl}cyclopropan-1-amine] the figure was under 500 nM; with `O=C(c1ccc(-c2nc3ccccn3c2Cl)cc1)N1CCN(C(=O)C2(O)CC2)CC1`, under 500 nM.
In turn, `C[C@@H]1CN(C(=O)c2ccc(-c3ccc4c(c3)ncn4C)cc2)C[C@H](C)N1C(=O)C1(O)CC1` [1-[(2R,6S)-2,6-dimethyl-4-[4-(1-methyl-1H-1,3-benzodiazol-5-yl)benzoyl]piperazine-1-carbonyl]cyclopropan-1-ol] showed an IC50 of under 500 nM.
Take `C[C@@H]1CN(C(=O)C2(O)CC2)CCN1C(=O)c1ccc(-c2ccc(Cl)cc2F)cc1`: the 50% inhibitory concentration (IC50) was under 500 nM.
Same read-out and setting: with `C[C@H]1CN(C(=O)c2ccc(-c3ccc4cnn(C)c4c3)cc2)CCN1C(=O)C1(O)CC1` [1-[(2S)-2-methyl-4-[4-(1-methyl-1H-indazol-6-yl)benzoyl]piperazine-1-carbonyl]cyclopropan-1-ol] the figure was under 500 nM.
`C[C@H]1CN(C(=O)C2(O)CC2)CCN1C(=O)c1ccc(-c2ccc(Cl)cc2F)cc1` [1-[(3S)-4-[4-(4-chloro-2-fluorophenyl)benzoyl]-3-methylpiperazine-1-carbonyl]cyclopropan-1-ol]: the IC50 was under 500 nM.
The same measure, in the same setting: with `O=C(c1ccc(-c2ccc3ncccc3c2)c(F)c1)N1CCN(C(=O)C2(O)CC2)CC1` [1-[(4-{[3-fluoro-4-(quinolin-6-yl)phenyl]carbonyl}piperazin-1-yl)carbonyl]cyclopropan-1-ol] the figure was under 500 nM; with `O=C(c1ccc(-c2cc(Cl)ccc2F)c(Cl)c1)N1CCN(C(=O)C2(O)CC2)CC1` [1-{4-[3-chloro-4-(5-chloro-2-fluorophenyl)benzoyl]piperazine-1-carbonyl}cyclopropan-1-ol], under 500 nM.
Same read-out and setting: as for `O=C(c1ccc(N2CCc3ccccc3CC2)cc1)N1CCN(C(=O)C2(O)CC2)CC1` [1-{4-[4-(2,3,4,5-tetrahydro-1H-3-benzazepin-3-yl)benzoyl]piperazine-1-carbonyl}cyclopropan-1-ol], the figure is under 500 nM.
`O=C(c1ccc(-c2n[nH]c3c(F)cccc23)cc1)N1CCN(C(=O)C2(O)CC2)CC1` [1-{4-[4-(7-fluoro-1H-indazol-3-yl)benzoyl]piperazine-1-carbonyl}cyclopropan-1-ol]: the IC50 is under 500 nM.
On the same count and under the same terms, as for `O=C(c1ccc(-c2cccc(S(=O)(=O)NC3CC3)c2)cc1Cl)N1CCN(C(=O)C2(O)CC2)CC1` [3-[3-chloro-4-({4-[(1-hydroxycyclopropyl)carbonyl]piperazin-1-yl}carbonyl)phenyl]-N-cyclopropylbenzene-1-sulfonamide], the figure is under 500 nM; as for `O=C(Nc1noc2ccc(-c3ccc(C(=O)N4CCN(C(=O)C5(O)CC5)CC4)cc3)cc12)C1CC1` [N-(5-{4-[4-(1-hydroxycyclopropanecarbonyl)piperazine-1-carbonyl]phenyl}-1,2-benzoxazol-3-yl)cyclopropanecarboxamide], under 500 nM; as for `Cn1cc2ccc(-c3cc(F)c(C(=O)N4CCN(C(=O)C5(O)CC5)CC4)c(F)c3)cc2n1` [1-{4-[2,6-difluoro-4-(2-methyl-2H-indazol-6-yl)benzoyl]piperazine-1-carbonyl}cyclopropan-1-ol], under 500 nM.
As to `Cc1n[nH]c2c(-c3ccc(C(=O)N4CCN(C(=O)C5(O)CC5)CC4)cc3)cccc12` [1-{4-[4-(3-methyl-1H-indazol-7-yl)benzoyl]piperazine-1-carbonyl}cyclopropan-1-ol], the IC50 is under 500 nM.

Still in this test, the particulars now being: FASN enzymatic assay; Table 2-2.
Molecule `Cc1cccc(-c2ccc(C(=O)N3CCN(C(=O)C4(O)CC4)CC3)cc2)c1F` [1-[(4-{[4-(2-fluoro-3-methylphenyl)phenyl]carbonyl}piperazin-1-yl)carbonyl]cyclopropan-1-ol] had an IC50 of 500 to 5000 nM.
The same measure, in the same setting: as for `O=C(c1ccc(-c2ccccc2)cc1)N1CCN(C(=O)C2(O)CCC2)CC1` [1-({4-[(4-phenylphenyl)carbonyl]piperazin-1-yl}carbonyl)cyclobutan-1-ol], the figure is 500 to 5000 nM.
Same read-out and setting: with `Cn1c(-c2ccc(C(=O)N3CCN(C(=O)C4(O)CC4)CC3)cc2)nc2ccccc21` [1-[(4-{[4-(1-methyl-1H-1,3-benzodiazol-2-yl)phenyl]carbonyl}piperazin-1-yl)carbonyl]cyclopropan-1-ol] the figure was 500 to 5000 nM; with `O=C(c1cnc(-c2ccc3ncccc3c2)cn1)N1CCN(C(=O)C2(O)CC2)CC1` [1-[(4-{[5-(quinolin-6-yl)pyrazin-2-yl]carbonyl}piperazin-1-yl)carbonyl]cyclopropan-1-ol], 500 to 5000 nM.
The same measure, in the same setting: as for `O=C(c1ccc(-c2nccc3occc23)cc1)N1CCN(C(=O)C2(O)CC2)CC1` [1-({4-[(4-{furo[3,2-c]pyridin-4-yl}phenyl)carbonyl]piperazin-1-yl}carbonyl)cyclopropan-1-ol], the figure is 500 to 5000 nM; as for `Cc1nc(-c2cnc3ccccc3c2)sc1C(=O)N1CCN(C(=O)C2(O)CC2)CC1` [1-[(4-{[4-methyl-2-(quinolin-3-yl)-1,3-thiazol-5-yl]carbonyl}piperazin-1-yl)carbonyl]cyclopropan-1-ol], 500 to 5000 nM.

Staying with this test, now noted: FASN enzymatic assay; Table 2-3.
The molecule `O=C(c1ccc(-c2ccc(C(F)(F)F)nc2)cc1)N1CCN(C(=O)C2(O)CC2)CC1` [1-{[4-({4-[6-(trifluoromethyl)pyridin-3-yl]phenyl}carbonyl)piperazin-1-yl]carbonyl}cyclopropan-1-ol] displayed an IC50 of at least 5000 nM.
In turn, `O=C(c1ccc(-c2cc(F)ccc2Cl)cc1)N1CCN(C(=O)C2(O)CC2)CC1` [1-[(4-{[4-(2-chloro-5-fluorophenyl)phenyl]carbonyl}piperazin-1-yl)carbonyl]cyclopropan-1-ol] came in with an IC50 of at least 5000 nM.
The same measure, in the same setting: as for `COc1ccc(-c2ccc(C(=O)N3CCN(C(=O)C4(O)CC4)CC3)cc2)c(OC)n1` [1-[(4-{[4-(2,6-dimethoxypyridin-3-yl)phenyl]carbonyl}piperazin-1-yl)carbonyl]cyclopropan-1-ol], the figure is at least 5000 nM.
